Results from patent US11787785B2 (NOVARTIS AG, priority 2021, dated 2023).
Read-outs that look alike come from different tables or passages of the source.

Biological target: T1, WIZ protein (HiBit-WIZ fusion protein) (Homo sapiens, UniProt O95785+Q96SW2)
T1 construct: expressed in transfected cells
Assay: Quantification of WIZ protein levels in HiBit tag fusion protein assay (WIZ HiBit assay in 293T cells)
Format: cell-based
Parameters: remaining activity / Dmax: dose or concentration left out as unconfirmed
In short: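 HiBit-tagged WIZ (N-terminal tag, HSVTK promoter) stably expressed single-copy in 293T cells; 10-point 1:5 compound series, top 25 μM, ~18 h at 37 °C. Lytic HiBit/LgBit luminescence read; Amax = curve-fitted % WIZ-HiBit remaining at 25 μM, DMSO normalized to 100%.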

[1] = HEK-293T, 100 − Amax, at 25 uM; 293T cells; read-out: % degradation of WIZ (100 − Amax)
[2] = HEK-293T, DMSO-normalized, curve-fitted percentage of WIZ-HiBit remaining at 25 uM; 293T cells; read-out: WIZ Amax
[3] = WIZ HiBit assay in 293T cells; 10-point, 5-fold dose response, highest concentration 25 μM, about 18 hours; read-out: WIZ AC50
[4] = HEK-293T, read-out: % degradation of WIZ (100 − Amax)

T1 sequence (O95785 whole entry, the tested form may be a part): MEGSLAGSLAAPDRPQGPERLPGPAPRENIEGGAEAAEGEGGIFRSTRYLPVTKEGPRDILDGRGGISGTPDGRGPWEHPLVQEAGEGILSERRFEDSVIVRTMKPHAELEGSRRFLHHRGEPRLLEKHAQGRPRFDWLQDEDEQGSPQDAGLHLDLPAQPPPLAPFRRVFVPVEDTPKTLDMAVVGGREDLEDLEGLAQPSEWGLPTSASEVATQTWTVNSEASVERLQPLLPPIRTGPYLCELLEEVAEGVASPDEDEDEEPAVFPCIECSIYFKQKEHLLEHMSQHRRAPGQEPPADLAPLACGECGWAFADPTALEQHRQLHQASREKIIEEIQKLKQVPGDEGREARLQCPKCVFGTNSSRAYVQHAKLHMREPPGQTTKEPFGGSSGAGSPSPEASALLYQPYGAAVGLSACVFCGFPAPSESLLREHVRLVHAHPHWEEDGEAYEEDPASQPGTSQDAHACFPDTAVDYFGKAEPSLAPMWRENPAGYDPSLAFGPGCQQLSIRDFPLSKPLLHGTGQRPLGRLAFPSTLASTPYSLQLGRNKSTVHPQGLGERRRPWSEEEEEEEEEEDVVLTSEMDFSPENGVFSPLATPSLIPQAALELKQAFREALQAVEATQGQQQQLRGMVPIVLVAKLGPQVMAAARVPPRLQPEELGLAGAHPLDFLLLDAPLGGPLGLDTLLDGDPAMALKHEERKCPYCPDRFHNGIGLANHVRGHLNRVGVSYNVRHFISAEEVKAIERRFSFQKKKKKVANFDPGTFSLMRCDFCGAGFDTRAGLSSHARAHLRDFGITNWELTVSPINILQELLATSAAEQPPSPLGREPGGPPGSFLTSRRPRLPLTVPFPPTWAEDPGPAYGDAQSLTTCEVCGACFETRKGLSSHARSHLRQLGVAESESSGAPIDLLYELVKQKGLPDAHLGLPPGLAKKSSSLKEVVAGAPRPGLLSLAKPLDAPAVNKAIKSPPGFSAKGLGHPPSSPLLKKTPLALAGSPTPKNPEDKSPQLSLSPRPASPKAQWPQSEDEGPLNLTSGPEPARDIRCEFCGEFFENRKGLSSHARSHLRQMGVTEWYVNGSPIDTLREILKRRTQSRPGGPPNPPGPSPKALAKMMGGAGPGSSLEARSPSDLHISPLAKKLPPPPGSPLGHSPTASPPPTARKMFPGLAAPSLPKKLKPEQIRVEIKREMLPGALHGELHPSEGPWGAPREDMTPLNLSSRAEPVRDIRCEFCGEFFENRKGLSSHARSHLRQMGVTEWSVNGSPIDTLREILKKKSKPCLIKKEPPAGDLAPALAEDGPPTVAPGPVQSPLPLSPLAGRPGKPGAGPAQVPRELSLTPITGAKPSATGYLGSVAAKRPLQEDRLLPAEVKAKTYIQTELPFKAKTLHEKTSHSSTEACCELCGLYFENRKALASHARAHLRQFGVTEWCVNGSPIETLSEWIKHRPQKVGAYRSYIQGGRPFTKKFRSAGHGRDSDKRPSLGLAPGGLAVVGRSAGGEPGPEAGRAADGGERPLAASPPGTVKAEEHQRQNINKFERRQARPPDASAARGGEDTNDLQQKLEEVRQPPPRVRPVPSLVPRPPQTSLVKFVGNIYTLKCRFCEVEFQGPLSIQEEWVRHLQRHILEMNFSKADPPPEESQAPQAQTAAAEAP
T1 sequence (Q96SW2 whole entry, the tested form may be a part): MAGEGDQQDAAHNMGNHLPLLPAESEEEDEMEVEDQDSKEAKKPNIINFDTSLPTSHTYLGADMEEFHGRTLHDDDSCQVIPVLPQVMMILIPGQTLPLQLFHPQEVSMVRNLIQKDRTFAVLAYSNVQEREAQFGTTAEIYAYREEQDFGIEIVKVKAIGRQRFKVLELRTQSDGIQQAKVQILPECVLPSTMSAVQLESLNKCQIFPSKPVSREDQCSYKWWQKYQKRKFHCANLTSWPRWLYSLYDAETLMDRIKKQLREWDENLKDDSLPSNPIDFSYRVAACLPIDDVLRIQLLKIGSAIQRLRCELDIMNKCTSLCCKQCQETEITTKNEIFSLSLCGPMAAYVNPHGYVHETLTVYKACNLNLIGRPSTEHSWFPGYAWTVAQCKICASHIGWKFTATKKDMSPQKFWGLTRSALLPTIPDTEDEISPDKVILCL
T1 sequence (Q16531 whole entry partner, the tested form may be a part): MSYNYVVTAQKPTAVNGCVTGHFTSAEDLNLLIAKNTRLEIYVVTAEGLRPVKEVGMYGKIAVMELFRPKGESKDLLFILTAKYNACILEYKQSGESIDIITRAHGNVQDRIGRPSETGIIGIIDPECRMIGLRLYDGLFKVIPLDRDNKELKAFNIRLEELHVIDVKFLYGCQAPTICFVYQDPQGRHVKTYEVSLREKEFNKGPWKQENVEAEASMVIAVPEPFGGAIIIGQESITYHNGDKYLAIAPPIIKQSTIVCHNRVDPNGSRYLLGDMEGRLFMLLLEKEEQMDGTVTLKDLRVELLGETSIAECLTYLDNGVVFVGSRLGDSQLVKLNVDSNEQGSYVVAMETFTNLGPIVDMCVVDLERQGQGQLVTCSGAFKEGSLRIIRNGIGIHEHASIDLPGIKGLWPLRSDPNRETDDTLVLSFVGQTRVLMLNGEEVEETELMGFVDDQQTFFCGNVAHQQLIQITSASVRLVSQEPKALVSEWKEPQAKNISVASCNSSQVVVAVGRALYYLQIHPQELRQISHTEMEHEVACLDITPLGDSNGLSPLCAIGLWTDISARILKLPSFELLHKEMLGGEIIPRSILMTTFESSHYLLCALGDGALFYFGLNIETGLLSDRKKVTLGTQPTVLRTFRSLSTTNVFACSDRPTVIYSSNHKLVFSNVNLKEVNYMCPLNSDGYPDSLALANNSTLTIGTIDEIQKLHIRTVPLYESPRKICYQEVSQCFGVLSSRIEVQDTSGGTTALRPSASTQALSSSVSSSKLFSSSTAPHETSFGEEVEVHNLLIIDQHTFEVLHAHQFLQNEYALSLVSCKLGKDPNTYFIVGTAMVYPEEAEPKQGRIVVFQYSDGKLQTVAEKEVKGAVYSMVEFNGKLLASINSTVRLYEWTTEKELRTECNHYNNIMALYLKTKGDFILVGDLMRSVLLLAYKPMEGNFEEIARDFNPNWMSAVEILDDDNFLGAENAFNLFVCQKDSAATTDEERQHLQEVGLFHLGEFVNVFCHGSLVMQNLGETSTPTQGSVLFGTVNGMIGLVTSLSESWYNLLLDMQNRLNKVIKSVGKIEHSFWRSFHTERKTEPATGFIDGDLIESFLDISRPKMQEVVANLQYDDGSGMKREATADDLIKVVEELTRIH

## C[C@H]1C[C@H](Cc2ccn3ncc(N4CCC(=O)NC4=O)c3c2)CCN1CC(F)F [Example 274, 1-(5-(((2S,4R)-1-(2,2-difluoroethyl)-2-methylpiperidin-4-yl)methyl)pyrazolo[1,5-a]pyridin-3-yl)dihydropyrimidine-2,4(1H,3H)-dione]
[1]
  Dmax at 25 µM: 77%
[2]
  remaining activity at 25 µM: 23%
[3]
  DC50: 32 nM

## C[C@H]1C[C@H](Cc2ccn3ncc(N4CCC(=O)NC4=O)c3c2)CCN1CC(F)(F)F [Example 275, 1-(5-(((2S,4R)-2-methyl-1-(2,2,2-trifluoroethyl)piperidin-4-yl)methyl)pyrazolo[1,5-a]pyridin-3-yl)dihydropyrimidine-2,4(1H,3H)-dione]
[1]
  Dmax at 25 µM: 79%
[2]
  remaining activity at 25 µM: 21%
[3]
  DC50: 20 nM

## C[C@H]1C[C@H](Cc2ccn3ncc(N4CCC(=O)NC4=O)c3c2)CCN1CCC(F)(F)F [Example 276, 1-(5-(((2S,4R)-2-methyl-1-(3,3,3-trifluoropropyl)piperidin-4-yl)methyl)pyrazolo[1,5-a]pyridin-3-yl)dihydropyrimidine-2,4(1H,3H)-dione]
[1]
  Dmax at 25 µM: 84%
[2]
  remaining activity at 25 µM: 15%
[3]
  DC50: 9 nM

## C[C@H]1C[C@H](Cc2ccn3ncc(N4CCC(=O)NC4=O)c3c2)CCN1CC1CCO1 (stereo partly drawn) [Example 277, 1-(5-(((2S,4R)-2-methyl-1-(oxetan-2-ylmethyl)piperidin-4-yl)methyl)pyrazolo[1,5-a]pyridin-3-yl)dihydropyrimidine-2,4(1H,3H)-dione]
[1]
  Dmax at 25 µM: 76%
[2]
  remaining activity at 25 µM: 24%
[3]
  DC50: 203 nM

## COCC(F)(F)CN1CC[C@@H](Cc2ccn3ncc(N4CCC(=O)NC4=O)c3c2)C[C@@H]1C [Example 278, 1-(5-(((2S,4R)-1-(2,2-difluoro-3-methoxypropyl)-2-methylpiperidin-4-yl)methyl)pyrazolo[1,5-a]pyridin-3-yl)dihydropyrimidine-2,4(1H,3H)-dione]
[4]
  Dmax: 72%
HEK-293T, read-out: WIZ Amax
  remaining activity: 28%
[3]
  DC50: 66 nM

## C[C@H]1C[C@H](Cc2ccn3ncc(N4CCC(=O)NC4=O)c3c2)CCN1C1COC1 [Example 279, 1-(5-(((2S,4R)-2-methyl-1-(oxetan-3-yl)piperidin-4-yl)methyl)pyrazolo[1,5-a]pyridin-3-yl)dihydropyrimidine-2,4(1H,3H)-dione]
[1]
  Dmax at 25 µM: 91%
[2]
  remaining activity at 25 µM: 9%
[3]
  DC50: 26 nM

## C[C@H]1C[C@H](Cc2ccn3ncc(N4CCC(=O)NC4=O)c3c2)CCN1C1CCC1 [Example 280, 1-(5-(((2S,4R)-1-cyclobutyl-2-methylpiperidin-4-yl)methyl)pyrazolo[1,5-a]pyridin-3-yl)dihydropyrimidine-2,4(1H,3H)-dione]
[1]
  Dmax at 25 µM: 88%
[2]
  remaining activity at 25 µM: 12%
[3]
  DC50: 8 nM

## O=C1CCN(c2cnn3ccc(CC4CCN(C5COC5)CC4)cc23)C(=O)N1 [Example 281, 1-(5-((1-(oxetan-3-yl)piperidin-4-yl)methyl)pyrazolo[1,5-a]pyridin-3-yl)dihydropyrimidine-2,4(1H,3H)-dione]
[1]
  Dmax at 25 µM: 83%
[2]
  remaining activity at 25 µM: 17%
[3]
  DC50: 4 nM

## O=C1CCN(c2cnn3ccc(CC4CCN(C5CCC5)CC4)cc23)C(=O)N1 [Example 282, 1-(5-((1-cyclobutylpiperidin-4-yl)methyl)pyrazolo[1,5-a]pyridin-3-yl)dihydropyrimidine-2,4(1H,3H)-dione]
[1]
  Dmax at 25 µM: 81%
[2]
  remaining activity at 25 µM: 19%
[3]
  DC50: 1 nM

## C[C@H]1C[C@H](Cc2ccn3ncc(N4CCC(=O)NC4=O)c3c2)CCN1S(C)(=O)=O [Example 284]
[1]
  Dmax at 25 µM: 80%
[2]
  remaining activity at 25 µM: 20%
[3]
  DC50: 18 nM

## C[C@H]1C[C@H](Cc2ccn3ncc(N4CCC(=O)NC4=O)c3c2)CCN1S(=O)(=O)C1CC1 [Example 286]
[1]
  Dmax at 25 µM: 79%
[2]
  remaining activity at 25 µM: 20%
[3]
  DC50: 31 nM

## CC(C)C(=O)N1CC[C@@H](Cc2ccn3ncc(N4CCC(=O)NC4=O)c3c2)C[C@@H]1C [Example 288]
[1]
  Dmax at 25 µM: 80%
[2]
  remaining activity at 25 µM: 20%
[3]
  DC50: 8 nM

## C[C@H]1C[C@H](Cc2ccn3ncc(N4CCC(=O)NC4=O)c3c2)CCN1C(=O)C1CCC1 [Example 289]
[1]
  Dmax at 25 µM: 79%
[2]
  remaining activity at 25 µM: 21%
[3]
  DC50: 33 nM

## C[C@H]1C[C@H](Cc2ccn3ncc(N4CCC(=O)NC4=O)c3c2)CCN1C(=O)C1CCN(C)CC1 [Example 290]
[1]
  Dmax at 25 µM: 54%
[2]
  remaining activity at 25 µM: 46%
[3]
  DC50: 1700 nM

## C[C@H]1C[C@H](Cc2ccn3ncc(N4CCC(=O)NC4=O)c3c2)CCN1S(=O)(=O)N1CCCC1 [Example 291, 1-(5-(((2S,4R)-2-methyl-1-(pyrrolidin-1-ylsulfonyl)piperidin-4-yl)methyl)pyrazolo[1,5-a]pyridin-3-yl)dihydropyrimidine-2,4(1H,3H)-dione]
[1]
  Dmax at 25 µM: 83%
[2]
  remaining activity at 25 µM: 17%
[3]
  DC50: 15 nM

## C[C@H]1C[C@H](Cc2ccn3ncc(N4CCC(=O)NC4=O)c3c2)CCN1S(=O)(=O)N(C)C [Example 292]
[1]
  Dmax at 25 µM: 83%
[2]
  remaining activity at 25 µM: 17%
[3]
  DC50: 11 nM

## C[C@H]1C[C@H](Cc2ccn3ncc(N4CCC(=O)NC4=O)c3c2)CCN1S(=O)(=O)NC1CCCC1 [Example 293]
[1]
  Dmax at 25 µM: 76%
[2]
  remaining activity at 25 µM: 24%
[3]
  DC50: 65 nM

## C[C@H]1C[C@H](Cc2ccn3ncc(N4CCC(=O)NC4=O)c3c2)CCN1C(=O)N(C)C [Example 294]
[1]
  Dmax at 25 µM: 81%
[2]
  remaining activity at 25 µM: 19%
[3]
  DC50: 18 nM

## C[C@H]1C[C@H](Cc2ccn3ncc(N4CCC(=O)NC4=O)c3c2)CCN1C(=O)N1CCCC1 [Example 295]
[1]
  Dmax at 25 µM: 80%
[2]
  remaining activity at 25 µM: 20%
[3]
  DC50: 24 nM

## O=C1CCN(c2cnn3ccc(CC4CCN(S(=O)(=O)N5CCCC5)CC4)cc23)C(=O)N1 [Example 297, 1-(5-((1-(pyrrolidin-1-ylsulfonyl)piperidin-4-yl)methyl)pyrazolo[1,5-a]pyridin-3-yl)dihydropyrimidine-2,4(1H,3H)-dione]
[1]
  Dmax at 25 µM: 68%
[2]
  remaining activity at 25 µM: 32%
[3]
  DC50: 29 nM

## O=C1CCN(c2cnn3ccc(CC4CCN(S(=O)(=O)NC5CCCC5)CC4)cc23)C(=O)N1 [Example 298, N-cyclopentyl-4-((3-(2,4-dioxotetrahydropyrimidin-1(2H)-yl)pyrazolo[1,5-a]pyridin-5-yl)methyl)piperidine-1-sulfonamide]
[1]
  Dmax at 25 µM: 51%
[2]
  remaining activity at 25 µM: 49%
[3]
  DC50: 242 nM

## CCN(C)C(=O)N1CC[C@@H](Cc2ccn3ncc(N4CCC(=O)NC4=O)c3c2)C[C@@H]1C [Example 299, (2S,4R)-4-((3-(2,4-dioxotetrahydropyrimidin-1(2H)-yl)pyrazolo[1,5-a]pyridin-5-yl)methyl)-N-ethyl-N,2-dimethylpiperidine-1-carboxamide]
[4]
  Dmax: 82%
HEK-293T, read-out: WIZ Amax
  remaining activity: 18%
read-out: WIZ AC50; WIZ HiBit assay in 293T cells; 10-point, 5-fold dose response, highest concentration 25 μM, about 18 hours
  DC50: 9 nM

## CO[C@H]1C[C@@H](CN2CCC(Cc3ccn4ncc(N5CCC(=O)NC5=O)c4c3)CC2)C1 [Example 300, 1-(5-((1-(((1s,3s)-3-methoxycyclobutyl)methyl)piperidin-4-yl)methyl)pyrazolo[1,5-a]pyridin-3-yl)dihydropyrimidine-2,4(1H,3H)-dione]
[1]
  Dmax at 25 µM: 82%
[2]
  remaining activity at 25 µM: 18%
[3]
  DC50: 3 nM
